Experimental data as given in patent US20230100235A1, “ANTICANCER AGENT COMPOSITION” (CARNA BIOSCIENCES, INC., priority 2020, published 2023).

Key:
[1] = test system: U2932 cells; experiment: Dose-response study of BTK inhibitor in the presence of BCL-2 inhibitor, U2932; assay type: cell-based; settings: Homo sapiens, read-out: Inhibitory activity on cell proliferation U2932 IC50
Method: (§1) The OCI-Ly10 or U2932 cells (20000 cells/well) were seeded into 96-well plates (cell plates), to which the test compound diluted with the medium was added at final concentrations of 0.009 nM to 30000 nM (a final DMSO concentration of 0.3%), and after 96 hours of culture, an Alamar Blue reagent (Thermo Fisher Scientific Inc.) was added. After 3 hours, the fluorescence of excitation wavelength 560 nm/fluorescence wavelength 590 nm was measured and IC50 values of inhibitory activity were determined by setting a compound-free and cell-free well as 100% and a compound-free and cell-containing well as 0%.
(§2) Changes in IC50 values of the BTK inhibitor in the presence of the BCL-2 inhibitor at various concentrations were examined.
From the result obtained for the BCL-2 inhibitor used as a single agent, BCL-2 inhibitor concentrations for three doses were selected for each cancer cell line.

[2] = test system: OCI-Ly10 cells; experiment: Dose-response study of BTK inhibitor in the presence of BCL-2 inhibitor, OCI-Ly10; assay type: cell-based; settings: Homo sapiens, read-out: Inhibitory activity on cell proliferation OCI-Ly10 IC50
Method: as §1, §2

[3] = test system: U2932 cells; experiment: Cell proliferation suppression test of single agents, U2932 (Alamar Blue, 96 h); assay type: cell-based, Human; settings: Homo sapiens, U2932, single agent, read-out: Inhibitory Activity on cell proliferation IC50 U2932
Method: Human lymphoma cell line U2932 cells (obtained from DSMZ) were cultured in a 5% CO2 incubator using RPMI medium (Roswell Park Memorial Institute medium, Thermo Fisher Scientific Inc.) containing 10% fetal bovine serum (GE Healthcare) and 1% penicillin streptomycin (NACALAI TESQUE, INC.).
as §1

[4] = test system: BTK-C481S-mutant OCI-Ly10 cells; experiment: Cell proliferation suppression test of single agents, BTK-C481S-mutant OCI-Ly10; assay type: cell-based, Human; settings: Homo sapiens, OCI-Ly10; single agent; read-out: Inhibitory activity on cell proliferation OCI-Ly10 BTK-C481S IC50
Method: as §1
(§3) BTK-C481S-mutant OCI-Ly10 cells were produced by point mutation knock-in using the CRISPR-Cas9 system. Cas9 protein (Thermo Fisher Scientific Inc.), guide RNA prepared with GeneArt™ Precision gRNA Synthesis Kit (Thermo Fisher Scientific Inc.), and a single-stranded synthetic oligonucleotide to replace 481st cysteine residue of BTK with a serine residue were introduced into OCI-Ly10 cells by an electroporation method. The resulting modified OCI-Ly10 cells were cultured in the presence of ibrutinib, and the grown cells were used as BTK-C481S-mutant OCI-Ly10 cells. Transduction of the mutation was confirmed by genomic DNA and mRNA sequence analysis.
In the same manner as in Test Example 1, IC50 values for each inhibitor single agent were determined.

[5] = test system: OCI-Ly10 cells; experiment: Cell proliferation suppression test of single agents, OCI-Ly10 (Alamar Blue, 96 h); assay type: cell-based, Human; settings: Homo sapiens, OCI-Ly10, single agent, read-out: Inhibitory Activity on cell proliferation IC50 OCI-Ly10
Method: Human lymphoma cell line OCI-Ly10 cells (obtained from University Health Network) were cultured in a 5% CO2 incubator using IMDM medium (Iscove's Modified Dulbecco's Medium, Thermo Fisher Scientific Inc.) containing 20% fetal bovine serum (GE Healthcare) and 1% penicillin streptomycin (NACALAI TESQUE, INC.).
as §1

[6] = test system: BTK-C481S-mutant OCI-Ly10 cells; experiment: Dose-response study of BTK inhibitor in the presence of BCL-2 inhibitor, BTK-C481S-mutant OCI-Ly10; assay type: cell-based; settings: Homo sapiens, read-out: Inhibitory activity on cell proliferation OCI-Ly10 BTK-C481S IC50
Method: as §3
BTK-C481S-mutant lymphoma cells were used to examine changes in IC50 values of the BTK inhibitor in the presence of various concentrations of BCL-2 inhibitor.
From the results obtained for the BCL-2 inhibitor used as a single agent, BCL-2 inhibitor concentrations for three doses were selected for BTK-C481-mutant OCI-Ly10 cells.

[7] = OCI-Ly10, in the presence of S-55746 10 nM
[8] = OCI-Ly10, in the presence of S-55746 30 nM
[9] = OCI-Ly10, in the presence of S-55746 100 nM
[10] = OCI-Ly10, in the presence of navitoclax 10 nM
[11] = OCI-Ly10, in the presence of navitoclax 30 nM
[12] = OCI-Ly10, in the presence of navitoclax 100 nM
[13] = OCI-Ly10, in the presence of obatoclax mesylate 50 nM
[14] = OCI-Ly10, in the presence of obatoclax mesylate 100 nM
[15] = OCI-Ly10, in the presence of obatoclax mesylate 200 nM
[16] = OCI-Ly10, in the presence of venetoclax 1 nM
[17] = OCI-Ly10, in the presence of venetoclax 3 nM
[18] = OCI-Ly10, in the presence of venetoclax 10 nM
[19] = OCI-Ly10, obatoclax mesylate 0 nM

## Cn1cc(Nc2nc(N)nc(-c3cccc(-n4ccc5cc(C6CC6)cc(F)c5c4=O)c3CO)n2)cn1 [Compound (II-A), 2-(3-{4-Amino-6-[(1-methyl-1H-pyrazol-4-yl)amino]-1,3,5-triazin-2-yl}-2-(hydroxymethyl)phenyl)-6-cyclopropyl-8-fluoroisoquinolin-1(2H)-one]
[1]; U2932, S-55746 0 nM
  IC50: > 30 µM
[1]; U2932, in the presence of S-55746 100 nM
  IC50: 5.74 µM
[1]; U2932, in the presence of S-55746 300 nM
  IC50: 0.93 µM
[1]; U2932, in the presence of S-55746 1000 nM
  IC50: 0.1 µM
[1]; U2932, in the presence of navitoclax 30 nM
  IC50: 13.4 µM
[1]; U2932, in the presence of navitoclax 100 nM
  IC50: 1.36 µM
[1]; U2932, in the presence of navitoclax 300 nM
  IC50: 0.1 µM
[1]; U2932, in the presence of obatoclax mesylate 50 nM
  IC50: 28.7 µM
[1]; U2932, in the presence of obatoclax mesylate 100 nM
  IC50: 25.8 µM
[1]; U2932, in the presence of venetoclax 3 nM
  IC50: 8.51 µM
[1]; U2932, in the presence of venetoclax 10 nM
  IC50: 2.19 µM
[1]; U2932, in the presence of venetoclax 100 nM
  IC50: 0.16 µM
[1]; U2932, navitoclax 0 nM
  IC50: > 30 µM
[1]; U2932, obatoclax mesylate 0 nM
  IC50: > 30 µM
[1]; U2932, venetoclax 0 nM
  IC50: > 30 µM
[2]; OCI-Ly10, S-55746 0 nM
  IC50: 0.033 µM
[2]; [7]
  IC50: 0.029 µM
[2]; [8]
  IC50: 0.025 µM
[2]; [9]
  IC50: 0.018 µM
[2]; [10]
  IC50: 0.051 µM
[2]; [11]
  IC50: 0.042 µM
[2]; [12]
  IC50: 0.026 µM
[2]; [13]
  IC50: 0.025 µM
[2]; [14]
  IC50: 0.028 µM
[2]; [15]
  IC50: 0.03 µM
[2]; [16]
  IC50: 0.038 µM
[2]; [17]
  IC50: 0.027 µM
[2]; [18]
  IC50: 0.019 µM
[2]; OCI-Ly10, navitoclax 0 nM
  IC50: 0.059 µM
[2]; [19]
  IC50: 0.038 µM
[2]; OCI-Ly10, venetoclax 0 nM
  IC50: 0.042 µM
[3]
  IC50: 34.7 µM
[4]
  IC50: 0.15 µM
[5]
  IC50: 0.042 µM
[6]; OCI-Ly10, S-55746 0 nM
  IC50: 0.15 µM
[6]; [7]
  IC50: 0.094 µM
[6]; [8]
  IC50: 0.069 µM
[6]; [9]
  IC50: 0.039 µM
[6]; [10]
  IC50: 0.26 µM
[6]; [11]
  IC50: 0.21 µM
[6]; [12]
  IC50: 0.11 µM
[6]; [13]
  IC50: 0.1 µM
[6]; [14]
  IC50: 0.095 µM
[6]; [15]
  IC50: 0.061 µM
[6]; [16]
  IC50: 0.11 µM
[6]; [17]
  IC50: 0.08 µM
[6]; [18]
  IC50: 0.053 µM
[6]; OCI-Ly10, navitoclax 0 nM
  IC50: 0.34 µM
[6]; [19]
  IC50: 0.3 µM
[6]; OCI-Ly10, venetoclax 0 nM
  IC50: 0.15 µM
